Measurements taken from publication PMC9250534, “Synthesis and direct assay of large macrocycle diversities by combinatorial late-stage modification at picomole scale” (Nature Communications, 2022).
Numbered stars: 1 amine (or outer) side, 2 acyl side, 3 side chain; on linkers, the order of the positions; unused ones are H or OH. Bridge positions count the residues as written; N and C are the ends. Square brackets hold non-standard residues; d marks the D form. Peptide text beside a SMILES is read from it. * marks the point of attachment. ξ: configuration not given here. Pro(4S-NHCO(5-Cl-2-thienyl)) = O=C(N[C@@H]1CN[C@H](C(=O)O)C1)c1ccc(Cl)s1; ξPro(4ξ-NHCOC6H4-4-Cl) = O=C(NC1CNC(C(=O)O)C1)c1ccc(Cl)cc1; 2Thenoyl(5-Cl) = O=C(c1ccc(Cl)s1)*; Benzoyl(4-Cl) = O=C(c1ccc(Cl)cc1)*; Cysteamide = C(CS[*:3])N[*:1]; X1 = O=C(/C=C/c1ccccc1)*; Api = NC1(C(=O)O)CCNCC1; Dap = NC[C@H](N)C(=O)O; Mpa = O=C(O)CCS

Target: MDM2 (Homo sapiens, UniProt Q00987)
Sequence (Q00987 whole entry): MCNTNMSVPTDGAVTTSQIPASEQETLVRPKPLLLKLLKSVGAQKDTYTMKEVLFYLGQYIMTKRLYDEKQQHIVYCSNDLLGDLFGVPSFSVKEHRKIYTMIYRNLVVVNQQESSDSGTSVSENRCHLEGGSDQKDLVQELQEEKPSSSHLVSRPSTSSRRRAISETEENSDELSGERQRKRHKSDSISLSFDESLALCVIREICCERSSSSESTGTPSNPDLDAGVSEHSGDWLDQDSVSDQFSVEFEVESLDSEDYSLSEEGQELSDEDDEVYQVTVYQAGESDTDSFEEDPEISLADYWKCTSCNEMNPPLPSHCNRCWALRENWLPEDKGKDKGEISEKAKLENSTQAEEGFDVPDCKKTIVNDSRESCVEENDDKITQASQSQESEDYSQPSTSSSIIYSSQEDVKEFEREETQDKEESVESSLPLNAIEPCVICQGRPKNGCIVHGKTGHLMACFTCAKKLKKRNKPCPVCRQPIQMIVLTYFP
Assay: MDM2 binding screen: displacement of fluorescent p53 peptide probe FP53 (fluorescence polarization)
Conditions: crude macrocycle reactions; for fraction fluorescent probe displaced, Screen: initial screen
Summary of the method: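 Macrocycle reaction products at a final 10 µM were tested for displacement of a p53-based fluorescent peptide from human MDM2. Fluorescence anisotropy (ex 485/em 535 nm) was read once per macrocycle at 25 °C.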

Row | SMILES | fraction fluorescent probe displaced, Screen (Acid 25) | fraction fluorescent probe displaced, Replicate (Acid 25) | fraction fluorescent probe displaced, Screen (Acid 14) | fraction fluorescent probe displaced, Replicate (Acid 14) | fraction fluorescent probe displaced, Screen (Acid 91) | fraction fluorescent probe displaced, Replicate (Acid 91)
1 | O=C1CCSSCCNC(=O)C2CC(NC(=O)c3ccc(Cl)cc3)CN2C(=O)C2CCCN2C(=O)C(Cc2c[nH]c3ccccc23)N1 (stereo not drawn) [X W B1 D5 Acid 25] ([Mpa]WP[ξPro(4ξ-NHCOC6H4-4-Cl)]-Cysteamide; disulfide 1-C; configuration not given here) | 0.15 | 0.17 | – | – | – | –
2 | O=C1CCSSCCNC(=O)C2(CCN(C(=O)c3ccc(Cl)s3)CC2)NC(=O)[C@@H]2CCCN2C(=O)[C@H](Cc2c[nH]c3ccccc23)N1 [X W B1 D6 Acid 14] ([Mpa]WP[Api](2Thenoyl(5-Cl))-Cysteamide; disulfide 1-C) | – | – | 0.08 | -0.00432 | – | –
3 | O=C1CCSSCCNC(=O)C2(CCN(C(=O)c3ccc(Cl)cc3)CC2)NC(=O)C2CCCN2C(=O)C(Cc2c[nH]c3ccccc23)N1 (stereo not drawn) [X W B1 D6 Acid 25] ([Mpa]WP[Api](Benzoyl(4-Cl))-Cysteamide; disulfide 1-C; configuration not given here) | 0.19 | 0.07 | – | – | – | –
4 | O=C1CCSSCCNC(=O)C2CN(C(=O)c3ccc(Cl)cc3)CCN2C(=O)C2CCCN2C(=O)C(Cc2c[nH]c3ccccc23)N1 (stereo not drawn) [X W B1 D7 Acid 25] | 0.19 | 0.17 | – | – | – | –
5 | O=C1CCNC(=O)[C@H](Cc2c[nH]c3ccccc23)NC(=O)CCSSCCNC(=O)[C@H](CNC(=O)c2ccc(Cl)s2)N1 [X W B2 D3 Acid 14] | – | – | 0.23 | 0.35 | – | –
6 | O=C1CCNC(=O)[C@H](Cc2c[nH]c3ccccc23)NC(=O)CCSSCCNC(=O)[C@H](CNC(=O)c2ccc(Cl)cc2)N1 [X W B2 D3 Acid 25] | 0.28 | 0.22 | – | – | – | –
7 | O=C(/C=C/c1ccccc1)NC[C@@H]1NC(=O)CCNC(=O)[C@H](Cc2c[nH]c3ccccc23)NC(=O)CCSSCCNC1=O [X W B2 D3 Acid 91] | – | – | – | – | 0.08 | 0.09
8 | O=C1CCSSCCNC(=O)C2(CCN(C(=O)c3ccc(Cl)s3)CC2)NC(=O)CCNC(=O)[C@H](Cc2c[nH]c3ccccc23)N1 [X W B2 D6 Acid 14] | – | – | 0.20 | -0.00432 | – | –
9 | O=C1CCSSCCNC(=O)C2(CCN(C(=O)c3ccc(Cl)cc3)CC2)NC(=O)CCNC(=O)[C@H](Cc2c[nH]c3ccccc23)N1 [X W B2 D6 Acid 25] | 0.09 | 0.0465 | – | – | – | –
10 | O=C1CCSSCCNC(=O)C2(CCN(C(=O)/C=C/c3ccccc3)CC2)NC(=O)CCNC(=O)[C@H](Cc2c[nH]c3ccccc23)N1 [X W B2 D6 Acid 91] | – | – | – | – | 0.22 | 0.09
11 | O=C1CCSSCCNC(=O)[C@H](CNC(=O)c2ccc(Cl)cc2)NC(=O)[C@H]2CCCN(C2)C(=O)[C@H](Cc2c[nH]c3ccccc23)N1 [X W B4 D3 Acid 25] | 0.25 | 0.30 | – | – | – | –
12 | O=C1CCSSCCNC(=O)C2CC(NC(=O)c3ccc(Cl)s3)CN2C(=O)C2CCCN(C2)C(=O)C(Cc2c[nH]c3ccccc23)N1 (stereo not drawn) [X W B4 D5 Acid 14] | – | – | 0.23 | 0.35 | – | –
13 | O=C(C=Cc1ccccc1)NC1CC2C(=O)NCCSSCCC(=O)NC(Cc3c[nH]c4ccccc34)C(=O)N3CCCC(C3)C(=O)N2C1 (stereo not drawn) [X W B4 D5 Acid 91] | – | – | – | – | 0.30 | 0.22
14 | O=C1CCSSCCNC(=O)C2(CCN(C(=O)c3ccc(Cl)s3)CC2)NC(=O)[C@H]2CCCN(C2)C(=O)[C@H](Cc2c[nH]c3ccccc23)N1 [X W B4 D6 Acid 14] | – | – | 0.17 | 0.33 | – | –
15 | O=C1CCSSCCNC(=O)C2(CCN(C(=O)c3ccc(Cl)cc3)CC2)NC(=O)[C@H]2CCCN(C2)C(=O)[C@H](Cc2c[nH]c3ccccc23)N1 [X W B4 D6 Acid 25] | 0.25 | 0.12 | – | – | – | –
16 | O=C1CCSSCCNC(=O)C2CN(C(=O)c3ccc(Cl)s3)CCN2C(=O)C2CCCN(C2)C(=O)C(Cc2c[nH]c3ccccc23)N1 (stereo not drawn) [X W B4 D7 Acid 14] | – | – | 0.34 | 0.33 | – | –
17 | O=C1CCSSCCNC(=O)[C@H](CNC(=O)c2ccc(Cl)s2)NC(=O)c2cccc(c2)CNC(=O)[C@H](Cc2c[nH]c3ccccc23)N1 [X W B5 D3 Acid 14] | – | – | 0.20 | 0.30 | – | –
18 | O=C1CCSSCCNC(=O)[C@H](CNC(=O)c2ccc(Cl)cc2)NC(=O)c2cccc(c2)CNC(=O)[C@H](Cc2c[nH]c3ccccc23)N1 [X W B5 D3 Acid 25] | 0.41 | 0.22 | – | – | – | –

Row | SMILES | fraction fluorescent probe displaced, Screen (Acid 25) | fraction fluorescent probe displaced, Replicate (Acid 25) | fraction fluorescent probe displaced, Screen (Acid 14) | fraction fluorescent probe displaced, Replicate (Acid 14) | fraction fluorescent probe displaced, Screen (Acid 91) | fraction fluorescent probe displaced, Replicate (Acid 91)
19 | O=C(/C=C/c1ccccc1)NC[C@@H]1NC(=O)c2cccc(c2)CNC(=O)[C@H](Cc2c[nH]c3ccccc23)NC(=O)CCSSCCNC1=O [X W B5 D3 Acid 91] | – | – | – | – | 0.03 | 0.07
20 | O=C1CCSSCCNC(=O)C2CC(NC(=O)c3ccc(Cl)s3)CN2C(=O)c2cccc(c2)CNC(=O)C(Cc2c[nH]c3ccccc23)N1 (stereo not drawn) [X W B5 D5 Acid 14] | – | – | 0.14 | 0.10 | – | –
21 | O=C(C=Cc1ccccc1)NC1CC2C(=O)NCCSSCCC(=O)NC(Cc3c[nH]c4ccccc34)C(=O)NCc3cccc(c3)C(=O)N2C1 (stereo not drawn) [X W B5 D5 Acid 91] | – | – | – | – | 0.08 | 0.17
22 | O=C1CCSSCCNC(=O)C2(CCN(C(=O)c3ccc(Cl)s3)CC2)NC(=O)c2cccc(c2)CNC(=O)[C@H](Cc2c[nH]c3ccccc23)N1 [X W B5 D6 Acid 14] | – | – | 0.14 | 0.17 | – | –
23 | O=C1CCSSCCNC(=O)C2CN(C(=O)c3ccc(Cl)cc3)CCN2C(=O)c2cccc(c2)CNC(=O)C(Cc2c[nH]c3ccccc23)N1 (stereo not drawn) [X W B5 D7 Acid 25] | 0.0244 | 0.12 | – | – | – | –
24 | O=C1CCSSCCNC(=O)C2CN(C(=O)C=Cc3ccccc3)CCN2C(=O)c2cccc(c2)CNC(=O)C(Cc2c[nH]c3ccccc23)N1 (stereo not drawn) [X W B5 D7 Acid 91] | – | – | – | – | 0.16 | 0.0168
25 | O=C1CCSSCCNC(=O)[C@@H]2CCCN2C(=O)[C@H](CNC(=O)c2ccc(Cl)s2)NC(=O)[C@H](Cc2c[nH]c3ccccc23)N1 [X W D3 B1 Acid 14] ([Mpa]W[Dap](2Thenoyl(5-Cl))P-Cysteamide; disulfide 1-C) | – | – | 0.28 | 0.28 | – | –
26 | O=C1CCSSCCNC(=O)[C@@H]2CCCN2C(=O)[C@H](CNC(=O)c2ccc(Cl)cc2)NC(=O)[C@H](Cc2c[nH]c3ccccc23)N1 [X W D3 B1 Acid 25] ([Mpa]W[Dap](Benzoyl(4-Cl))P-Cysteamide; disulfide 1-C) | 0.32 | 0.30 | – | – | – | –
27 | O=C(/C=C/c1ccccc1)NC[C@@H]1NC(=O)[C@H](Cc2c[nH]c3ccccc23)NC(=O)CCSSCCNC(=O)[C@@H]2CCCN2C1=O [X W D3 B1 Acid 91] ([Mpa]W[Dap](X1)P-Cysteamide; disulfide 1-C) | – | – | – | – | 0.11 | -0.00827
28 | O=C(/C=C/c1ccccc1)NC[C@@H]1NC(=O)[C@H](Cc2c[nH]c3ccccc23)NC(=O)CCSSCCNC(=O)CCNC1=O [X W D3 B2 Acid 91] | – | – | – | – | 0.08 | 0.04
29 | O=C1CCSSCCNC(=O)[C@H]2CCCN(C2)C(=O)[C@H](CNC(=O)c2ccc(Cl)cc2)NC(=O)[C@H](Cc2c[nH]c3ccccc23)N1 [X W D3 B4 Acid 25] | 0.28 | 0.12 | – | – | – | –
30 | O=C(/C=C/c1ccccc1)NC[C@@H]1NC(=O)[C@H](Cc2c[nH]c3ccccc23)NC(=O)CCSSCCNC(=O)[C@H]2CCCN(C2)C1=O [X W D3 B4 Acid 91] | – | – | – | – | 0.35 | 0.07
31 | O=C1CCSSCCNC(=O)c2cccc(c2)CNC(=O)[C@H](CNC(=O)c2ccc(Cl)s2)NC(=O)[C@H](Cc2c[nH]c3ccccc23)N1 [X W D3 B5 Acid 14] | – | – | 0.31 | 0.07 | – | –
32 | O=C1CCSSCCNC(=O)c2cccc(c2)CNC(=O)C(CNC(=O)c2ccc(Cl)cc2)NC(=O)C(Cc2c[nH]c3ccccc23)N1 (stereo not drawn) [X W D3 B5 Acid 25] | 0.12 | 0.17 | – | – | – | –
33 | O=C(/C=C/c1ccccc1)NC[C@@H]1NC(=O)[C@H](Cc2c[nH]c3ccccc23)NC(=O)CCSSCCNC(=O)c2cccc(c2)CNC1=O [X W D3 B5 Acid 91] | – | – | – | – | 0.0563 | 0.17
34 | O=C1CCSSCCNC(=O)[C@@H]2CCCN2C(=O)[C@@H]2C[C@H](NC(=O)c3ccc(Cl)s3)CN2C(=O)[C@H](Cc2c[nH]c3ccccc23)N1 [X W D5 B1 Acid 14] ([Mpa]W[Pro(4S-NHCO(5-Cl-2-thienyl))]P-Cysteamide; disulfide 1-C) | – | – | 0.28 | 0.22 | – | –
35 | O=C1CCSSCCNC(=O)C2CCCN2C(=O)C2CC(NC(=O)c3ccc(Cl)cc3)CN2C(=O)C(Cc2c[nH]c3ccccc23)N1 (stereo not drawn) [X W D5 B1 Acid 25] ([Mpa]W[ξPro(4ξ-NHCOC6H4-4-Cl)]P-Cysteamide; disulfide 1-C; configuration not given here) | 0.22 | 0.28 | – | – | – | –
36 | O=C(C=Cc1ccccc1)NC1CC2C(=O)N3CCCC3C(=O)NCCSSCCC(=O)NC(Cc3c[nH]c4ccccc34)C(=O)N2C1 (stereo not drawn) [X W D5 B1 Acid 91] | – | – | – | – | 0.08 | 0.07
